The structures appear in SMILES notation. Read-outs that look alike come from different tables or passages of the source.

The subject of data set [1] is spinach chloroplasts. As to the kind of experiment: Inhibition of oxygen evolution rate (OER) / photosynthetic electron transport in spinach chloroplasts. Format: biochemical, Spinacia oleracea L. Conditions: for IC50: DCPIP photoreduction, pH 7.2. The protocol:
Chloroplasts were prepared from spinach (Spinacia oleracea L.) according to Masarovicova and Kralova. The inhibition of photosynthetic electron transport (PET) in spinach chloroplasts was determined spectrophotometrically (Genesys 6, Thermo Scientific, U.S.A.) using an artificial electron acceptor 2,6-dichlorophenol-indophenol (DCPIP) according to Kralova et al. and the rate of photosynthetic electron transport was monitored as a photoreduction of DCPIP. The measurements were carried out in phosphate buffer (0.02 mol/L, pH 7.2) containing sucrose (0.4 mol/L), MgCl2 (0.005 mol/L) and NaCl (0.015 mol/L). The chlorophyll content was 30 mg/L in these experiments and the samples were irradiated (~100 W/m^2) from 10 cm distance with a halogen lamp (250 W) using a 4 cm water filter to prevent warming of the samples (suspension temperature 22 °C). The studied compounds were dissolved in DMSO due to their limited water solubility. […] The inhibitory efficiency of the studied compounds was expressed by IC50 values, i.e. by molar concentration of the compounds causing 50% decrease in the oxygen evolution rate relative to the untreated control.

Data set [2] relates to Candida glabrata 20/I. The data set can be described thus: In vitro antifungal broth microdilution test. Conditions: Nakaseomyces glabratus, 20/I, RPMI 1640, pH 7.0, 35 °C, read-out: MIC/IC80 CG. It counts as cell-based. The protocol:
(§1) Fluconazole (FLU) was used as the standard of a clinically used antimycotic drug. The procedure was performed with twofold dilution of the compounds in […]., Prague, Czech Republic) buffered to pH 7.0 with 0.165 mol of 3-morpholino-propane-1-sulfonic acid (MOPS, Sigma, Germany). […] Drug-free controls were included. The MIC was defined as an 80% or greater (IC80) reduction of growth in comparison with the control.
On the technique in general: Broth dilution looks for growth in wells or tubes with falling amounts of substance.

Data set [3] has as its system Aspergillus fumigatus 231. As to the kind of experiment: In vitro antifungal broth microdilution test. Format: cell-based. Conditions: Aspergillus fumigatus, 231, RPMI 1640, pH 7.0, 35 °C, read-out: MIC/IC80 AF. On the procedure:
as §1

Data set [4] has as its system Candida tropicalis 156. The data set can be described thus: In vitro antifungal broth microdilution test. Format: cell-based. Conditions: Candida tropicalis, 156, RPMI 1640, pH 7.0, 35 °C, read-out: MIC/IC80 CT. On the procedure: as §1
Data set [5] concerns Trichophyton mentagrophytes 445. The data set can be described thus: In vitro antifungal broth microdilution test. Conditions: Trichophyton mentagrophytes, 445, RPMI 1640, pH 7.0, 35 °C, read-out: MIC/IC80 TM. It counts as cell-based. On the procedure:
as §1

The test system of data set [6] is Candida krusei ATCC 6258. The data set can be described thus: In vitro antifungal broth microdilution test. Conditions: Pichia kudriavzevii, ATCC6258, RPMI 1640, pH 7.0, 35 °C, read-out: MIC/IC80 CK. It counts as cell-based. On the procedure:
as §1

Data set [7] concerns Absidia corymbifera 272. As to the kind of experiment: In vitro antifungal broth microdilution test. It counts as cell-based. Conditions: Lichtheimia corymbifera, 272, RPMI 1640, pH 7.0, 35 °C, read-out: MIC/IC80 AC. On the procedure: as §1
For data set [8], the system named is Candida albicans ATCC 44859. As to the kind of experiment: In vitro antifungal broth microdilution test. Format: cell-based. Conditions: Candida albicans, ATCC44859, RPMI 1640, pH 7.0, 35 °C, read-out: MIC/IC80 CA. On the procedure:
as §1

Data set [9] in a line: Lipophilicity HPLC determination (capacity factor k / log k). It counts as physicochemical. Conditions: RP-HPLC, C18 column, MeOH 55.0% / H2O 45.0%, isocratic. The protocol: Hydrophobicities (log P/Clog P values) of the compounds 1-12 were calculated using two commercially available programs and also measured by means of the reversed phase high performance liquid chromatography (RP-HPLC) method for lipophilicity measurement. The procedure was performed under isocratic conditions with methanol as an organic modifier in the mobile phase using an end-capped non-polar C18 stationary RP column. The capacity factors k were determined and subsequent log k values were calculated.
The HPLC separation module Waters Alliance 2695 XE and Waters Photodiode Array Detector 2996 (Waters Corp., Milford, MA, U.S.A.) were used. A Symmetry® C18 5 μm, 4.6 × 250 mm, Part No. WAT054275, (Waters Corp., Milford, MA, U.S.A.) chromatographic column was used. The HPLC separation process was monitored by Millennium32® Chromatography Manager Software, Waters 2004 (Waters Corp., Milford, MA, U.S.A.). The mixture of MeOH p.a. (55.0%) and H2O-HPLC – Mili-Q Grade (45.0%) was used as a mobile phase. The total flow of the column was 0.9 mL/min, injection 30 μL, column temperature 30 °C and sample temperature 10 °C. The detection wavelength 210 nm was chosen. The KI methanolic solution was used for the dead time (TD) determination. Retention times (tR) were measured in minutes. The capacity factors k were calculated using the Millennium32® Chromatography Manager Software according to formula k = (tR - tD) / tD, where tR is the retention time of the solute, whereas tD denotes the dead time obtained via an unretained analyte. Log k, calculated from the capacity factor k, is used as the lipophilicity index converted to log P scale.

For data set [10], the system named is Trichosporon beigelii 1188. As to the kind of experiment: In vitro antifungal broth microdilution test. It counts as cell-based. Conditions: Trichosporon beigelii, 1188, RPMI 1640, pH 7.0, 35 °C, read-out: MIC/IC80 TB. The protocol: The broth microdilution test was used for the assessment of in vitro antifungal activity of the synthesized compounds against Candida albicans ATCC 44859 (CA), Candida tropicalis 156 (CT), Candida krusei ATCC 6258 (CK), Candida glabrata 20/I (CG), Trichosporon beigelii 1188 (TB), Aspergillus fumigatus 231 (AF), Absidia corymbifera 272 (AC), and Trichophyton mentagrophytes 445 (TM). Fluconazole (FLU) was used as the standard of a clinically used antimycotic drug. The procedure was performed with twofold dilution of the compounds in RPMI 1640 (Sevapharma a.s., Prague, Czech Republic) buffered to pH 7.0 with 0.165 mol of 3-morpholino-propane-1-sulfonic acid (MOPS, Sigma, Germany). The final concentrations of the compounds ranged from 500 to 0.975 μmol/l. Drug–free controls were included. The MIC was defined as an 80% or greater (IC80) reduction of growth in comparison with the control. The values of MICs were determined after 24 and 48 h of static incubation at 35 °C. For T. mentagrophytes, the final MICs were determined after 72 and 120 h of incubation.

For `Nc1c(O)c2ccccc2[nH]c1=O` [Compound 6, 3-Amino-4-hydroxyquinolin-2(1H)-one], in [1], the IC50 (in general, the concentration at which inhibition is half-maximal) came out at 775 µM. In addition, the MIC in data set [2] (24h), in data set [2] (48h), in [3] (24h), in data set [3] (48h), in data set [4] (24h) and in [4] (48h) was above 500 µM each time. Besides, the MIC in [5] (72h), in data set [5] (120h), in data set [6] (24h), in data set [6] (48h), in data set [7] (24h) and in data set [7] (48h) was above 500 µM throughout. Moreover, the MIC in data set [8] (24h), in [8] (48h), in [10] (24h) and in data set [10] (48h) was above 500 µM each time. For the same compound, the log k in [9] was found to be 0.0004.
As to `O=C(/C=C/c1ccccc1)Nc1c(O)c2ccccc2[nH]c1=O` [Compound 7, (2E)-N-(4-Hydroxy-2-oxo-1,2-dihydroquinolin-3-yl)-3-phenylprop-2-enamide], in data set [1], half-maximal inhibition (IC50) was put at 916 µM. Besides, the MIC in data set [2] (24h), in data set [2] (48h), in data set [3] (24h), in data set [3] (48h), in [4] (24h) and in [4] (48h) was above 125 µM each time. Also, the MIC in data set [5] (72h), in [5] (120h), in [6] (24h), in data set [6] (48h), in data set [7] (24h) and in data set [7] (48h) was above 125 µM throughout. Besides, the MIC in data set [8] (24h), in data set [8] (48h), in data set [10] (24h) and in [10] (48h) was above 125 µM in each case. Also, the log k in data set [9] is 0.0128.
In the case of `CCOC(=O)c1c(O)c2ccccc2[nH]c1=O` [Compound 9, Ethyl 4-hydroxy-2-oxo-1,2-dihydroquinoline-3-carboxylate], the “OER inhibition effectiveness relative to compound 1” value in [1] is “approximately twice as effective as compound 1”. The compound further had an IC50 in data set [1] of 494 µM. Besides, the MIC in [2] (24h), in [2] (48h), in [3] (24h), in data set [3] (48h), in data set [4] (24h) and in [4] (48h) was above 500 µM in each case. The MIC in data set [5] (72h), in [5] (120h), in [6] (24h), in [6] (48h), in data set [7] (24h) and in [7] (48h) was above 500 µM each time. Moreover, the MIC in data set [8] (24h), in data set [8] (48h), in [10] (24h) and in data set [10] (48h) was above 500 µM throughout. For the same compound, the log k in data set [9] was 0.4595.
For the compound `O=C(O)c1c(O)c2ccccc2[nH]c1=O` [Compound 10, 4-Hydroxy-2-oxo-1,2-dihydroquinoline-3-carboxylic acid], half-maximal inhibition in data set [1] (IC50) required 567 µM. Also, the MIC in [2] (24h), in data set [2] (48h), in [3] (24h), in data set [3] (48h), in [4] (24h) and in data set [4] (48h) was above 500 µM in each case. The MIC in data set [5] (72h), in [5] (120h), in data set [6] (24h), in [6] (48h), in [7] (24h) and in data set [7] (48h) was above 500 µM throughout. The MIC in [8] (24h), in [8] (48h), in data set [10] (24h) and in [10] (48h) was above 500 µM throughout. This compound gave a log k in [9] of 0.0118.
In the case of `O=C(O)c1ccc(NC(=O)c2c(O)c3cc(C(=O)O)ccc3[nH]c2=O)cc1` [Compound 11, 3-(4-Carboxyphenylcarbamoyl)-4-hydroxy-2-oxo-1,2-dihydroquinoline-6-carboxylic acid], the midpoint of inhibition in data set [1], the IC50, lay at 380 µM. For the same compound, the MIC in [2] (24h), in [2] (48h), in data set [3] (24h), in data set [3] (48h), in data set [4] (24h) and in [4] (48h) was above 500 µM in each case. For the same compound, the MIC in [5] (72h), in [5] (120h), in [6] (24h), in [6] (48h), in data set [7] (24h) and in data set [7] (48h) was above 500 µM each time. Moreover, the MIC in [8] (24h), in data set [8] (48h), in [10] (24h) and in data set [10] (48h) was above 500 µM each time. Moreover, the log k in [9] worked out at 0.0081.
